Where two headings read alike, the source gives them in different places. One block for each molecule: values may come before it.
Assays:
N87 cells = assay: N87 proliferation measured by tritiated-thymidine incorporation; type: cell-based
Experimental: N87 cells were exposed to the 17-demethoxy-17-aminoderivative of geldanamycin indicated in Table 1 below, and the concentration at which the proliferation of the N87 cells was inhibited by 50% was determined in nanomolar units.

HuT102 cells = assay: Internalization of radiolabeled antibody by HuT102 cells; type: cell-based; details: cells washed with dilute acid
Experimental: This example employs three antibodies, e21, AE1 (from Landolfi, Protein Design Labs, California), and anti-Tac (i.e., Zenapax from Hoffman-LaRoche, Inc., Nutley, N.J.). The antibodies e21 and AE1 bind Her2 with high affinity, and anti-Tac binds CD25 with high affinity. All three antibodies were radiolabeled and incubated with cells expressing the respective ligands on their cell surfaces (N87 cells for e21 and AE1 and HuT102 cells for anti-Tac). Both N87 cells and HuT102 cells are cancer cells that are known to be sensitive to the effects of geldanamycin. (HuT102 cells are cultured cells from an ATL patient available from the inventor's laboratories.) The cells were washed with dilute acid to remove unincorporated radiolabel, and the amount of radiolabel remaining in the cells was measured as an indication of the amount of antibody internalized.

[1] = tritiated-thymidine incorporation, read-out: concentration that inhibited 50% of the N87 proliferation

Molecule: COC1C=CC=C(C)C(=O)NC2=CC(=O)C(NCCCN)=C(CC(C)CC(OC)C(O)C(C)C=C(C)C1OC(N)=O)C2=O (centres unmarked) [17-aminopropylamino-geldanamycin, 17-aminopropylaminogeldanamycin]
IC50 (N87 cells; [1]): 180 nM

Molecule: COC1=C2C[C@@H](C)C[C@H](OC)[C@H](O)[C@@H](C)/C=C(\C)[C@H](OC(N)=O)[C@@H](OC)/C=C\C=C(/C)C(=O)NC(=CC1=O)C2=O [geldanamycin]
IC50 (N87 cells; Table 1, read-out: IC50 (nM), proliferation of N87 cells inhibited by 50%): 8.4 nM | IC50 (N87 cells; [1]): 8 nM

solubility in water (Solubility in water): water-soluble
Molecule: 17-cys-GMB-aminopropylaminogeldanamycin [compound 4]

B1: anti-Tac: anti-Tac (i.e., Zenapax from Hoffman-LaRoche), binds CD25 with high affinity (antibody, chains of the INN, looked up, V domains shown)
VH: QVQLVQSGAEVKKPGSSVKVSCKASGYTFTSYRMHWVRQAPGQGLEWIGYINPSTGYTEYNQKFKDKATITADESTNTAYMELSSLRSEDTAVYYCARGGGVFDYWGQGTLVTVSS
VL: DIQMTQSPSTLSASVGDRVTITCSASSSISYMHWYQQKPGKAPKLLIYTTSNLASGVPARFSGSGSGTEFTLTISSLQPDDFATYYCHQRSTYPLTFGQGTKVEVK
radiolabel taken up by HuT102 cells (antibody internalized) (HuT102 cells): no significant quantity

— patent US7026350B2, “Water-soluble drugs and methods for their production” (The United States of America as represented by the …, priority 1998, dated 2006)
